This is an account of results in PMC2610677 (Chemistry & biology, 2008).

In this assay the target is trORAS (truncated ORAS) (Neurospora crassa, UniProt Q7S6N4). Description: HPLC of CoASH release, initial velocities, Michaelis-Menten fit. It is filed as biochemical. Particulars: malonyl-CoA (100 mM [sic]) as extender; 50 mM Tris-HCl pH 7.0; 30 °C.

The Km is the concentration of substrate that gives half-maximal velocity. For the compound `CCCCCCCCCCCCCCCCCC(=O)SCCNC(=O)CCNC(=O)[C@H](O)C(C)(C)COP(=O)(O)OP(=O)(O)OC[C@H]1O[C@@H](n2cnc3c(N)ncnc32)[C@H](O)[C@@H]1OP(=O)(O)O` [7a, stearoyl-CoA], the Michaelis-Menten constant (Km) is 3.5 µM.
